From patent publication US20220289732A1, “HETEROCYCLIC WDR5 INHIBITORS AS ANTI-CANCER COMPOUNDS” (NOVARTIS AG, priority 2019, published 2022)
Where two headings read alike, the source gives them in different places.

How the values were obtained:
[1] = molecular target: WDR5 (Homo sapiens, UniProt P61964); assay: WDR5 HTRF binding assay; details: read-out: (a) WDR5 HTRF Pep Val v.1[Inhibitor/IC50]Qualified AC50
Protocol: The compounds were serially diluted 3-fold in DMSO to obtain a total of twelve concentrations. Then the test compounds at each concentration (90 nL of each) were transferred by Mosquito in the white Proxiplate plus 384-well microplate (Perkin Elmer). The assay mixture (typical 9 μL) containing 6 nM WDR5 and 20 nM Biotin-MLL1 WIN peptide (3762-3773) in the assay buffer (25 mM Hepes, pH7.5, 0.05% Tween 20, 2 mM DTT, 100 mM NaCl, 0.1% BSA) were added to the wells. For counter assay, a 9 μL solution of 15 nM Biotin-PEG-His peptide was added into the wells. After 20 min incubation at rt, a 3 μL detection solution containing 14 μg/ml Phycolink Streptavidin Allophycocyanin (Prozyme), 2 nM Anti-His-Eu (PerkinElmer) in assay buffer was then added. After 1 hr incubation, the plate was read in the EnVision reader (PerkinElmer) using the HTRF protocol (The protocol set-up: Lance/Delfia dual enhancer mirror, excitation at 320 UV2 (TRF), emission at APC665, 2nd emission at EuropiμM 615). HTRF signals were normalized based on the reading coming from the positive (maximum signal control) and negative controls (minimum signal control) to give percentage of activities left. The data were then fit to a dose response equation using the program Helios (Novartis) to get the IC50 values. Helios is a Novartis in-house assay data analysis software using the methods described by Normolle, D. P., Statistics in Medicine, 12:2025-2042 (1993); Formenko, I. et al., Computer Methods and programs in Biomedicine, 82, 31-37 (2006); Sebaugh, J. L., Pharmaceutical Statistics, 10:128-134 (2011); Kelly, C. et al., Biometrics, 46(4):1071-1085 (1990); and Kahm, M, et al., Journal of Statistical Software, 33(7):(2010) (grofit: Fitting Biological Growth Curves with R, pages 1-21, available at http://www.jstatsoft.org/).

[2] = test system: MV4-11 cells; assay: MV4-11 6-day cell growth CTG (CellTiter-Glo) assay; format: cell-based; details: 6 days, read-out: (c) MLL/WDR5 cell proliferation assay//MLL/WDR5 proliferation MV4:11 Qualified AC50
Protocol: MV4-11 6-Day Cell Growth CTG (CellTiter-Glo) Assay
Acute myeloid leukemia cell MV4-11 (ATCC® CRL-9591™) was cultured with RPMI 1640 medium (Thermo Fisher Scientific, cat #11875) supplemented with 10% FBS (Thermo Fisher Scientific, cat #10099141) in humidified incubator at 37° C., 5% CO2. To assess the effect of WDR5 inhibitor on cell growth, the compound of the present invention was dissolved in DMSO and serially diluted at 1:3 for 12 points starting from 10 mM then 200 nL for the replicate of each dose per well was dispensed to Viewplate-384 Black (Perkin Elmer). Exponentially growing MV4-11 cells were seeded at the density of 300 cells per well in 40 μL to the plate, so the final compound working concentration starts from 50 μM. After 6 days, 40 μL CellTiter-Glo (Promega, cat #G7573) was added into the cell culture well and luminescence was read with Envision (Perkin Elmer) to determine the viable cells. The percentage inhibition was calculated against the samples treated with DMSO only and the data were used for dose response curve fitting in GraphPad Prism to get the IC50 of representative compound of present invention, which reflects the inhibition of WDR5 activity in the proliferation of MV4;11.

[3] = molecular target: wild type MLL1 four-member complex (MLL1-4C) (Homo sapiens, UniProt P61964); assay: MLL1 LC-MS assay (SAH production); format: biochemical; details: read-out: (b) MLL LCMS Peptide Val.v.1 Qualified AC50
Protocol: The compounds of the present disclosure were serially and separately diluted 3-fold in DMSO to obtain a total of eight or twelve concentrations. Then the test compounds at each concentration (120 nL of each) were transferred by Mosquito into white Proxiplate plus 384-well microplate (PerkinElmer). Solutions (6 μL) of 60 nM wild type MLL1 four-member complex (MLL1-4C) and 5 μM SAM in the reaction buffer (20 mM Tris-HCl, pH8.0, 0.01% Tween 20, 1 mM DTT, 10 mM MgCl2, 0.01% BSA) were added to the wells that were then incubated with the test compound for 20 min. A 6 μL solution of 20 μM of the peptide substrate H3K4me0 (histone H3[1-21]-Biotin) in the reaction buffer was added to initiate each reaction. The final components in the reaction solution include 30 nM MLL1-4C, 2.5 μM SAM, and 10 μM H3K4me0 with varying concentration of the compounds. A positive control consisted of 30 nM MLL1-4C, 2.5 μM SAM, and 10 μM substrate in the absence of the test compound, and a negative control consisted of 2.5 μM SAM, and 10 μM substrate only. Each reaction was incubated at rt for 120 min, then stopped by addition of 3 μL per of quench solution (2.5% TFA with 320 nM d4-SAH). The reaction mixture was centrifuged (Eppendorf centrifuge 5810, Rotor A-4-62) for 2 min at 2000 rmp. The SAH production from the enzymatic assays were monitored by LC-MS/MS on an API 4000 triple quadrupole mass spec with Turbolon Spray (Applied Biosystem) coupled with Prominenece UFLC (Shimazu). The level of SAH production were then normalized based on the values coming from the positive and negative controls to give percent enzyme activities. The data were then fit to a dose response equation using the program Helios (Novartis) to get the IC50 values of the test compound. Helios is a Novartis in-house assay data analysis software using the methods described by Normolle, D. P., Statistics in Medicine, 12:2025-2042 (1993); Formenko, I. et al., Computer Methods and programs in Biomedicine, 82, 31-37 (2006); Sebaugh, J. L., Pharmaceutical Statistics, 10:128-134 (2011); Kelly, C. et al., Biometrics, 46(4):1071-1085 (1990); and Kahm, M, et al., Journal of Statistical Software, 33(7):(2010) (grofit: Fitting Biological Growth Curves with R, pages 1-21, available at http://www.jstatsoft.org/).

SMILES	IC50 [1] [nM]	AC50 [3] [nM]	AC50 ([2]; Homo sapiens, MV4-11, 144 h) [nM]	AC50 [2] [nM]
CCOc1cc(C(C)N2CCc3c(cc(Cn4ccnc4C)cc3-c3cn(C)nc3C)C2=O)ncc1C#N (racemic) [Example 262, 6-(1-(5-(1,3-dimethyl-1H-pyrazol-4-yl)-7-((2-methyl-1H-imidazol-1-yl)methyl)-1-oxo-3,4-dihydroisoquinolin-2(1H)-yl)ethyl)-4-ethoxynicotinonitrile]	< 10	10 to 1000	–	< 10
CCOc1cc([C@H](C)N2CCc3c(Cl)cc(Cn4ccnc4NC)cc3C2=O)ncc1C#N (single isomer, unassigned) [Example 3]	< 10	10 to 1000	10 to 1000	–
CNc1nccn1Cc1cc(CN2CCOCC2)c2c(c1)C(=O)N([C@@H](C)c1cc(OC)c(F)cn1)CC2 (single isomer, unassigned) [Example 7]	< 10	10 to 1000	10 to 1000	–
CNc1nccn1Cc1cc2c(c(-c3cc([C@@H](C)O)cnc3Cl)c1)CCN(Cc1ccc(F)c(OC)c1)C2=O (single isomer, unassigned) [Example 75]	< 10	10 to 1000	10 to 1000	–
CNc1nccn1Cc1cc2c(c(N3CC(OC)C3)c1)CCN([C@@H](C)c1cc(OC)c(F)cn1)C2=O (single isomer, unassigned) [Example 90]	10 to 1000	10 to 1000	10 to 1000	–
CNc1nccn1Cc1ccc2c(c1)C(=O)N([C@@H](C)c1cnc(F)c(OC)c1)CC2 (single isomer, unassigned) [Example 94]	10 to 1000	10 to 1000	10 to 1000	–
CCOc1cc([C@H](C)N2CCc3c(cc(Cn4ccnc4C)cc3-n3nc(C)nc3C)C2=O)ncc1C#N (single isomer, unassigned) [Example 265]	< 10	10 to 1000	10 to 1000	–
CNc1nccn1Cc1ccc2ncn(C(C)c3cnc(F)c(OC)c3)c(=O)c2c1 (stereo not shown) [Example 110, 3-(1-(6-fluoro-5-methoxypyridin-3-yl)ethyl)-6-((2-(methylamino)-1H-imidazol-1-yl)methyl)quinazolin-4(3H)-one]	10 to 1000	10 to 1000	–	–
CCOc1cc(C(C)N2CCc3c(cc(CCN(C)CC)cc3-n3cccn3)C2=O)ncc1C#N (stereo not shown) [Example 209]	10 to 1000	10 to 1000	–	–
CCOc1cc(CN2CCc3c(cc(Cn4ccnc4C)cc3-c3cc(C)nn3C)C2=O)ncc1C#N [Example 300]	< 10	10 to 1000	–	–
CCOc1cc(CN2CCc3c(cc(Cn4ccnc4C)cc3-c3cn(S(C)(=O)=O)nc3C)C2=O)ncc1C#N [Example 301]	< 10	10 to 1000	–	–

Further lines, with some results ahead:

IC50 [1] [nM]	AC50 [3] [nM]	SMILES	AC50 ([2]; Homo sapiens, MV4-11, 144 h) [nM]	AC50 [2] [nM]
< 10	10 to 1000	CCOc1cc(C(C)N2CCc3c(cc(Cn4ccnc4C)cc3-c3cn(C)nc3C)C2=O)ncc1C#N (racemic) [Example 261, 6-(1-(5-(1,3-dimethyl-1H-pyrazol-4-yl)-7-((2-methyl-1H-imidazol-1-yl)methyl)-1-oxo-3,4-dihydroisoquinolin-2(1H)-yl)ethyl)-4-ethoxynicotinonitrile]	10 to 1000	–
10 to 1000	10 to 1000	CCOc1cc([C@H](C)N2CCc3c(CN(C)C)cc(Cn4ccnc4NC)cc3C2=O)ncc1F (single isomer, unassigned) [Example 19]	10 to 1000	–
< 10	10 to 1000	CNc1nccn1Cc1cc(CN2CC(O)C2)c2c(c1)C(=O)N([C@@H](C)c1cc(OC)c(F)cn1)CC2 (single isomer, unassigned) [Example 51]	10 to 1000	–
< 10	10 to 1000	CNc1nccn1Cc1cc2c(c(-c3cc([C@H](C)O)cnc3Cl)c1)CCN(Cc1ccc(F)c(OC)c1)C2=O (single isomer, unassigned) [Example 76]	10 to 1000	–
< 10	10 to 1000	CNc1nccn1Cc1cc2c(c(C3CC3)c1)CCN([C@@H](C)c1cnc(F)c(OC)c1)C2=O (single isomer, unassigned) [Example 78]	10 to 1000	–
< 10	10 to 1000	CCOc1cc([C@H](C)N2CCc3c(cc(Cn4ccnc4NC)cc3N3CCCC3)C2=O)ncc1F (single isomer, unassigned) [Example 88]	10 to 1000	–
< 10	10 to 1000	CCOc1cc([C@H](C)N2CCc3c(cc(Cn4ccnc4C)cc3-c3nc(C)nn3C)C2=O)ncc1C#N (single isomer, unassigned) [Example 264]	10 to 1000	–
1000 to 25000	1000 to 25000	CCOc1cc([C@H](C)N2CCc3c(cc(Cn4ccnc4C)cc3[C@@H]3CCCN3C)C2=O)ncc1C#N (single isomer, unassigned) [Example 266]	1000 to 25000	–
< 10	10 to 1000	CCOc1cc([C@H](C)N2CCc3c(cc(Cn4ccnc4C)cc3[C@H]3CCCN3C)C2=O)ncc1C#N (single isomer, unassigned) [Example 267]	10 to 1000	–
10 to 1000	10 to 1000	CNc1nccn1Cc1ccc2cnn(C(C)c3cnc(F)c(OC)c3)c(=O)c2c1 (stereo not shown) [Example 109, 2-(1-(6-fluoro-5-methoxypyridin-3-yl)ethyl)-7-((2-(methylamino)-1H-imidazol-1-yl)methyl)phthalazin-1(2H)-one]	–	–
10 to 1000	1000 to 25000	CCOc1cc(C(C)N2CCc3c(cc(CCN(C)CC)cc3C3=CCNCC3)C2=O)ncc1C#N (stereo not shown) [Example 159, 4-ethoxy-6-(1-(7-(2-(ethyl(methyl)amino)ethyl)-1-oxo-5-(1,2,3,6-tetrahydropyridin-4-yl)-3,4-dihydroisoquinolin-2(1H)-yl)ethyl)nicotinonitrile]	–	–
< 10	–	CCOc1cc([C@H](C)N2CCc3c(cc(Cn4ccnc4C)cc3-c3c[nH]nc3C)C2=O)ncc1C#N [Example 302]	–	–
